Experimental data as given in paper PMC11219744, “Renal excretion of 1,2-dihydroxynaphthalene (DHN) in firefighting instructors after exposure to polycyclic aromatic hydrocarbons (PAHs) during live fire training” (Scientific Reports, 2024).

Columns and labels:
[1] = upper margin of internal exposure typically found in smokers; cited from earlier work
[2] = set-up: method as in PMID 32464238; conditions: by scheduled sampling time; cited from earlier work
[3] = Human biomonitoring: urinary excretion of PAH metabolites (GC–MS/MS, creatinine-normalised) in firefighting instructors before and after live fire training
Procedure: All study participants (n = 6) were male firefighting instructors from Germany. […] Before the start of the study, all subjects declared that they were non-smokers. Tattoo bearers were excluded before the start of the study as tattoo ink can be a potential source of polycyclic aromatic hydrocarbons. The authors declare that this research was conducted in accordance with the relevant regulations, including the Declaration of Helsinki. All subjects gave written informed consent after being informed about the study by the investigator.
Exposure to combustion products took place in several training sessions that simulated live fire conditions by burning a defined number of uncoated chipboards in an overseas container. The container was located in a hall with exhaust air purification. […] In addition, all subjects wore long-sleeved undergarments under their turnout gear. Only laundered clothing and cleaned equipment (e.g. helmets, masks) were used. The donning and doffing of clothing and protective equipment took place only in a smoke-free, well-ventilated area. Immediately after taking off the firefighters' gloves after training, the participants put on nitrile gloves for further undressing. After removing the helmet, flash hood and SCBA face shield, the participants put on particle filtering half masks (FFP3) to remove contaminated turnout jackets and trousers. After a break for rehydration and cool down still wearing their undergarments, the participants went to shower. […] The interval between two consecutive training sessions for each subject was at least six days. […] In this way, each subject was biomonitored at each of the five training sessions. All additional (unscheduled) urinations between the predefined times were also collected in separate containers and pooled afterwards with the next scheduled sample. […] A total of 270 samples were to be collected using this procedure for all participants and five training sessions of each individual. Subjects completed a questionnaire for each sampling period to account for possible pre-exposure or concurrent exposure to PAHs from sources other than the fire simulation unit, such as occupational exposure to combustion products, exposure to tobacco smoke (active/passive) and barbecue activities, and consumption of smoked or charbroiled foods.
In brief, the analytes were extracted by liquid–liquid extraction with n-hexane after enzymatic hydrolysis of the urine samples with ß-glucuronidase/arylsulfatase (isolated from helix pomatia) and derivatised by silylation with N-trimethylsilyl-N-methyl trifluoroacetamide afterwards. […] All standards were obtained from LGC-Standards, Wesel, Germany.
DHN in urine was determined referring to a method described in detail by Klotz et al.[29]. […] External calibration with internal standardisation by an isotopically labelled analogue of the target compound was done by analysis of pool urine samples spiked with the glucuronides of DHN and D6-1,2-dihydroxynaphthalene (internal standard) before enzymatic hydrolysis. Both standards are not commercially available and were obtained as a gift from the Institute of Occupational, Social and Environmental Medicine at the University of Erlangen-Nuremberg (Germany). A detailed description of the synthesis of the compounds is given by[26]. […] Up to now, there is no external quality assessment scheme available for DHN.
Urinary creatinine was analysed in the Institute of Clinical Chemistry and Laboratory Medicine of University Medical Centre of the Johannes Gutenberg University Mainz using a photometrical assay based on the method of[30].

SMILES: Oc1cccc2ccccc12 [1-NAP, 1-hydroxynaphthalene]
- 95th percentile of urinary concentration in smokers [1]: 32.8 µg/g crea.
- Time of peak excretion after the end of the training session [2]: 1 h
- Increase in concentration from before exposure up to the maximum of excretion, factor ([3]; in vivo): 40
- Median increase in morning urine after exposure (sampling 9) vs. before (sampling 1) ([3]; in vivo): 3.9 fold
- Median increase from baseline (sample 2) to peak excretion ([3]; peak: sample 5 for 1-PYR, sample 4 otherwise): 36 fold
